Test results reported in patent US20020173491A1, “DAPD combination therapy with inosine monophosphate dehydrogenase inhibitor” (priority 2000, published 2002).
Like-named read-outs stand apart in the source and are kept apart here. Marks after values point to notes of the source that are not given here.

Tests used:
[1] = tested on: recombinant virus A98S, F116Y, Q151M, T215Y; assay: MT2/XTT combination assay, recombinant resistant virus; format: cell-based, HIV-1; conditions: for fold difference from WT: A98S; for EC50: Human immunodeficiency virus 1, A98S
Procedure: (§1) Triplicate samples of compound were tested. MT2 cells were infected with xxLAI at a multiplicity of infection (MOI) of 0.03 for 3 hours at 37° C. in 5% CO2. The infected cells were plated at 3.0×10^4/well into a 96 well plated containing drug dilutions and incubated for 5 days at 37° C. in CO2. […] This method has been modified into a susceptibility assay and has been used in a variety of in vitro antiviral tests and is readily adaptable to any system with a lytic virus (Weislow, O. S., et. al. 1989). Using the absorption values of the cell controls as 100% protection and no drug, virus infected cells as 0% protection, a dose response curve is generated by plotting % protection on the Y axis and drug concentration on the X axis. From this curve EC50 values were determined.
(§2) Assays were performed in the MT2 cell line as described above in the XXT sensitivity assay section.
(§3) The restraint strains analyzed included viruses created by site directed mutagenesis, K65R and L74V, as well as a recombinant virus containing mutations at positions 98S, 116Y, 151M and 215Y. The wild type backbone in which these mutants were created, xxLAI, was also analyzed for comparison. The concentrations of DAPD and DXG tested were as described in the above MT2/XTT combination assay section.
(§4) The concentrations of MPA used were 1, 0.5, 0.25, 0.1, and 0.01 μM. Assays were performed in the MT2 cell line as described in section 3.1.
as §3, with “section 4.1. MPA was tested in” for “the above MT2/XTT”, “with DAPD and DXG at a fixed concentration of 0.25 μM.” for “assay section.”

HIV-1 mutant K65R = assay: MT2/XTT combination assay, resistant virus K65R; format: cell-based; conditions: for EC50: Human immunodeficiency virus 1, K65R; for fold difference from WT: K65R
Procedure: as §1, §2, §3, §4
as §3, with “section 4.1. MPA was tested in” for “the above MT2/XTT”, “with DAPD and DXG at a fixed concentration of 0.25 μM.” for “assay section.”

xxLAI strain of HIV-1 = assay: microbe, parasite or virus in culture; format: cell-based; conditions: for effect of addition of 0.25 μM MPA on anti-HIV activity in PBMCs / effect of addition of 20 μM RBV on anti-HIV activity in PBMCs / Fold difference in EC50, 0.01 μM MPA / Fold difference in EC50, 0.1 μM MPA / Fold difference in EC50, 0.25 μM MPA / Fold difference in EC50, 5 μM RBV / Fold difference in EC50, 10 μM RBV / Fold difference in EC50, 20 μM RBV: PBMC; for effect of addition of 0.25 μM MPA on anti-HIV activity in PBMCs / effect of addition of 20 μM RBV on anti-HIV activity in PBMCs: all the concentrations tested; for Fold difference in EC50, 0.01 μM MPA: control vs with 0.01 μM MPA; for Fold difference in EC50, 0.1 μM MPA: control vs with 0.1 μM MPA; for Fold difference in EC50, 0.25 μM MPA: control vs with 0.25 μM MPA; for Fold difference in EC50, 5 μM RBV: control vs with 5 μM RBV; for Fold difference in EC50, 10 μM RBV: control vs with 10 μM RBV; for Fold difference in EC50, 20 μM RBV: control vs with 20 μM RBV
Procedure: In this assay, cell supernatants were incubated on microelisa wells coated with antibodies to HIV-1 p24 core antigen. Subsequently, anti-HIV-1 conjugate labeled with horseradish peroxidase was added. The labeled antibody bound to the solid phase antibody/antigen complexes previously formed. Addition of the tetramethylbenzidine substrate results in blue color formation. The color turned yellow when the reaction is stopped. The plates were then analyzed on a plate reader set at 490 nm. The absorbance is a direct measurement of the amount of HIV-1 produced in each well and a decrease in color indicates decreased viral production. […] PBMC were obtained from HIV-1 negative donors by banding on Ficoll gradients, stimulated with phytohemaglutinin (PHAP) for 48 hours prior to infection with HIV-1, and infected with virus for 4 hours at 37° C. at a MOI of 0.001. […] Plates were incubated for 3 days at 37° C. The concentration of virus in each well was determined using the NEN p24 assay. Using the absorption values of the cell controls as 100% protection and drug free, virus infected cells as 0% protection, a dose response curve is generated by plotting percent protection on the Y axis and drug concentration on the X axis. From this curve, EC50 values were determined.
Compound dilutions and assay conditions were as described above.
MPA was also tested for activity against the xxLAI strain of HIV-1 in PBMCs using a p24 based Elisa assay. In this assay, cell supernatants are incubated on microelisa wells coated with antibodies to HIV-1 p24 core antigen. Subsequently, anti-HIV-1 conjugate labeled with horse radish peroxidase is added. The labeled antibody binds to the solid phase antibody/antigen complexes previously formed. Addition of the tetramethylbenzidine substrate results in blue color formation. The color turns yellow when the reaction is stopped. The plates are then analyzed on a plate reader set at 490 nm. The absorbance is a direct measurement of the amount of HIV-1 produced in each well and a decrease in color indicates decreased viral production. Dilutions of MPA were made in cell culture media in a 96 well plate, the highest concentration of MPA tested was 1 μM. PBMC were obtained from HIV-1 negative donors by banding on Ficoll gradients, stimulated with phytohemaglutinin (PHAP) for 48 hours prior to infection with HIV-1, and infected with virus for 4 hours at 37° C. at a MOI of 0.001. Infected cells were seeded into 96 well plates containing 4-fold serial dilutions of MPA. Plates were incubated for 3 days at 37° C. The concentration of virus in each well was determined using the NEN p24 assay. Using the absorption values of the cell controls as 100% protection and drug free, virus infected cells as 0% protection, a dose response curve is generated by plotting % protection on the Y axis and drug concentration on the X axis. From this curve EC50 values were determined.
Compound dilutions and assay conditions were as described above. The concentrations of MPA used were 1, 0.5, 0.25, 0.1, and 0.01 μM.

HIV-1 mutant L74V = assay: MT2/XTT combination assay, resistant virus L74V; format: cell-based; conditions: for EC50: Human immunodeficiency virus 1, L74V; for fold difference from WT: L74V
Procedure: as §1, §2, §3, §4
as §3, with “section 4.1. MPA was tested in” for “the above MT2/XTT”, “with DAPD and DXG at a fixed concentration of 0.25 μM.” for “assay section.”

[2] = Human immunodeficiency virus 1, PBMC, read-out: Mean EC50, Control, PMBCs, no MPA
[3] = Human immunodeficiency virus 1, PBMC, read-out: Mean EC50, Control, PMBCs, no RBV
[4] = read-out: Mean EC50, 0.01 μM MPA, PMBCs, with 0.01 μM MPA
[5] = read-out: Mean EC50, 0.1 μM MPA, PMBCs, with 0.1 μM MPA
[6] = read-out: Mean EC50, 0.25 μM MPA, PMBCs, with 0.25 μM MPA
[7] = read-out: Mean EC50, 1 μM RBV, PMBCs, with 1 μM RBV
[8] = read-out: Mean EC50, 5 μM RBV, PMBCs, with 5 μM RBV
[9] = read-out: Mean EC50, 10 μM RBV, PMBCs, with 10 μM RBV
[10] = read-out: Mean EC50, 20 μM RBV, PMBCs, with 20 μM RBV

Row | Compound | fold difference from WT ([1]; compound alone (Table 4)) | fold difference from WT ([1]; compound alone (Table 10)) [fold] | EC50 ([1]; compound alone (Table 4)) [µM] | EC50 ([1]; compound alone (Table 10)) [µM] | EC50 (HIV-1 mutant K65R; compound alone (Table 4)) [µM] | EC50 (HIV-1 mutant K65R; compound alone (Table 10)) [µM] | fold difference from WT (HIV-1 mutant K65R; compound alone (Table 4)) | fold difference from WT (HIV-1 mutant K65R; compound alone (Table 10)) [fold] | EC50 (xxLAI strain of HIV-1; [2]) [µM] | EC50 (xxLAI strain of HIV-1; [3]) [µM] | effect of addition of 0.25 μM MPA on anti-HIV activity in PBMCs (xxLAI strain of HIV-1; with 0.25 μM MPA) | effect of addition of 20 μM RBV on anti-HIV activity in PBMCs (xxLAI strain of HIV-1; with 20 μM RBV) | Fold difference in EC50, 0.01 μM MPA (xxLAI strain of HIV-1) [fold] | Fold difference in EC50, 0.1 μM MPA (xxLAI strain of HIV-1) [fold] | Fold difference in EC50, 0.25 μM MPA (xxLAI strain of HIV-1) [fold] | Fold difference in EC50, 5 μM RBV (xxLAI strain of HIV-1) [fold] | Fold difference in EC50, 10 μM RBV (xxLAI strain of HIV-1) [fold] | Fold difference in EC50, 20 μM RBV (xxLAI strain of HIV-1) [fold] | EC50 (xxLAI strain of HIV-1; [4]) [µM] | EC50 (xxLAI strain of HIV-1; [5]) [µM] | further results
1 | Nc1nc2c(ncn2C2COC(CO)O2)c(=O)[nH]1 (single isomer, unassigned; (-)) [DXG] | 20 fold | 8.4 | 16 | 16 | 3.9 | 4 | 5 fold | 5.6 | 0.14 | 0.15 | completely inhibited HIV replication | completely inhibited HIV replication | 9.3 | 23.3 | >50 | 5.6 | >15 | >15 | 0.015 | 0.006 | EC50 (xxLAI strain of HIV-1; [6]): < 0.0002 µM; EC50 (xxLAI strain of HIV-1; [7]): 0.075 µM; EC50 (xxLAI strain of HIV-1; [8]): 0.027 µM; EC50 (xxLAI strain of HIV-1; [9]): < 0.01 µM; EC50 (xxLAI strain of HIV-1; [10]): < 0.01 µM; EC50 (HIV-1 mutant L74V; compound alone (Table 4)): 4.5 µM; EC50 (HIV-1 mutant L74V; compound alone (Table 10)): 3.8 µM; fold difference from WT (HIV-1 mutant L74V; compound alone (Table 4)): 5.6 fold; fold difference from WT (HIV-1 mutant L74V; compound alone (Table 10)): 4.2 fold
2 | Nc1nc(N)c2ncn(C3COC(CO)O3)c2n1 (single isomer, unassigned; (-)) [DAPD] | (>12) fold | 6 | > 100 | 85 | 43.7 | 41 | (5.5)^b fold | 6 | 4.1 | 4.5 | completely inhibited HIV replication | completely inhibited HIV replication | 4.6 | 22.8 | >50 | 6.4 | 28 | >150 | 0.9 | 0.18 | EC50 (xxLAI strain of HIV-1; [6]): < 0.0002 µM; EC50 (xxLAI strain of HIV-1; [7]): 2.26 µM; EC50 (xxLAI strain of HIV-1; [8]): 0.7 µM; EC50 (xxLAI strain of HIV-1; [9]): 0.16 µM; EC50 (xxLAI strain of HIV-1; [10]): < 0.03 µM; EC50 (HIV-1 mutant L74V; compound alone (Table 4)): 34 µM; EC50 (HIV-1 mutant L74V; compound alone (Table 10)): 39 µM; fold difference from WT (HIV-1 mutant L74V; compound alone (Table 4)): (4) fold; fold difference from WT (HIV-1 mutant L74V; compound alone (Table 10)): 4.9 fold
